Assays:
Format in all cases: in vivo
[1] = test system: Hordeum vulgare (HORVW); assay: Pre-emergence herbicidal evaluation, winter barley
From the text: (§1) The pre-emergence herbicidal activity of the compounds of the present invention is exemplified by the following test in which the seeds of a variety of monocotyledonous and dicotyledonous plants are seperately mixed with potting soil and planted on top of approximately one inch of soil in separate pots. After planting, the pots are sprayed with the selected aqueous acetone solution containing test compound in sufficient quantity to provide the equivalent of about 0.0125 to 0.4 kg per hectare of test compound per pot. The treated pots are then placed on greenhouse benches, watered and cared for in accordance with conventional greenhouse procedures. From 2 to 4 weeks after treatment, the tests are terminated and each pot is examined and rated according to the rating system set forth below.

[2] = test system: Cassia obtusifolia (CASOB); assay: Pre-emergence herbicidal evaluation, sicklepod
From the text: as §1

[3] = test system: Lamium purpureum (LAMPU); assay: Pre-emergence herbicidal evaluation, purple deadnettle
From the text: as §1

[4] = test system: Echinochloa grus galli (ECHCG); assay: Post-emergence herbicidal evaluation, barnyard grass; settings: rated 2 to 4 weeks after treatment
Procedure: (§2) [table] [table] […] These acetone solutions are diluted with water and the resulting formulations applied at dosage levels equivalent of about 0.03 to 0.4 kg per hectare of test compound per pot. After spraying the plants are placed on greenhouse benches and are cared for in the usual manner, commensurate with conventional greenhouse practices. From 2 to 4 weeks after treatment, the seedling plants are examined and rated according to the rating system provided above. A rating 0 indicates growth as untreated control, a rating 9 indicates death.

[5] = test system: Echinochloa grus galli (ECHCG); assay: Pre-emergence herbicidal evaluation, barnyard grass
From the text: as §1

[6] = test system: Hordeum vulgare (HORVW); assay: Post-emergence herbicidal evaluation, winter barley; settings: rated 2 to 4 weeks after treatment
Procedure: as §2

[7] = test system: Solanum nigrum (SOLNI); assay: Post-emergence herbicidal evaluation, black nightshade; settings: rated 2 to 4 weeks after treatment
Procedure: as §2

[8] = test system: Ambrosia artemiisifolia (AMBEL); assay: Pre-emergence herbicidal evaluation, ragweed
From the text: as §1

[9] = test system: Digitaria sanguinalis (DIGSA); assay: Pre-emergence herbicidal evaluation, large crabgrass
From the text: as §1

Row | Structure (SMILES) | HORVW rating ([1]; dose 0.013 kg/ha) | HORVW rating ([1]; dose 0.025 kg/ha) | HORVW rating ([1]; dose 0.1 kg/ha) | HORVW rating ([1]; dose 0.4 kg/ha) | LAMPU rating ([3]; dose 0.013 kg/ha) | LAMPU rating ([3]; dose 0.025 kg/ha) | LAMPU rating ([3]; dose 0.1 kg/ha) | LAMPU rating ([3]; dose 0.4 kg/ha) | ECHCG rating ([4]; dose 0.03 kg/ha) | ECHCG rating ([4]; dose 0.1 kg/ha) | ECHCG rating ([4]; dose 0.4 kg/ha) | ECHCG rating ([5]; dose 0.013 kg/ha) | ECHCG rating ([5]; dose 0.025 kg/ha) | ECHCG rating ([5]; dose 0.1 kg/ha) | ECHCG rating ([5]; dose 0.4 kg/ha) | HORVW rating ([6]; dose 0.03 kg/ha) | HORVW rating ([6]; dose 0.1 kg/ha) | HORVW rating ([6]; dose 0.4 kg/ha) | SOLNI rating ([7]; dose 0.03 kg/ha) | SOLNI rating ([7]; dose 0.1 kg/ha) | other results
1 | Cc1cc(OC=CCC(F)(F)F)nc(Oc2cc(C(F)(F)F)nn2C)c1 [Example 2, 2-(1-Methyl-3-trifluoromethylpyrazol-5-yloxy)-4-methyl-6-(4,4,4-trifluorobut-1-enyloxy)pyridine] | 0 (0 - No effect) | 0 (0 - No effect) | 3 (3 - Moderate effect) | 5 (5 - Definite injury) | 8 (8 - Approaching complete kill) | 8 (8 - Approaching complete kill) | 9 (9 - Complete kill) | 9 (9 - Complete kill) | 2 (2 - Slight effect) | 5 (5 - Definite injury) | 7 (7 - Good herbicidal effect) | 0 (0 - No effect) | 2 (2 - Slight effect) | 8 (8 - Approaching complete kill) | 9 (9 - Complete kill) | 3 (3 - Moderate effect) | 3 (3 - Moderate effect) | 3 (3 - Moderate effect) | 7 (7 - Good herbicidal effect) | 8 (8 - Approaching complete kill) | CASOB rating ([2]; dose 0.013 kg/ha): 0 (0 - No effect); CASOB rating ([2]; dose 0.025 kg/ha): 1 (1 - Trace effect); CASOB rating ([2]; dose 0.1 kg/ha): 9 (9 - Complete kill); CASOB rating ([2]; dose 0.4 kg/ha): 9 (9 - Complete kill); SOLNI rating ([7]; dose 0.4 kg/ha): 8 (8 - Approaching complete kill); AMBEL rating ([8]; dose 0.013 kg/ha): 1 (1 - Trace effect); AMBEL rating ([8]; dose 0.025 kg/ha): 3 (3 - Moderate effect); AMBEL rating ([8]; dose 0.1 kg/ha): 8 (8 - Approaching complete kill); AMBEL rating ([8]; dose 0.4 kg/ha): 9 (9 - Complete kill)
2 | CC(Cl)=CCOc1cc(C)cc(Oc2cc(C(F)(F)F)nn2C)n1 [Example 11] | 3 (3 - Moderate effect) | 3 (3 - Moderate effect) | 3 (3 - Moderate effect) | 6 (6 - Herbicidal effect) | 5 (5 - Definite injury) | 8 (8 - Approaching complete kill) | 8 (8 - Approaching complete kill) | 9 (9 - Complete kill) | 8 (8 - Approaching complete kill) | 8 (8 - Approaching complete kill) | 8 (8 - Approaching complete kill) | 4 (4 - Injury) | 6 (6 - Herbicidal effect) | 8 (8 - Approaching complete kill) | 9 (9 - Complete kill) | 3 (3 - Moderate effect) | 4 (4 - Injury) | 4 (4 - Injury) | 3 (3 - Moderate effect) | 6 (6 - Herbicidal effect) | DIGSA rating ([9]; dose 0.013 kg/ha): 8 (8 - Approaching complete kill); DIGSA rating ([9]; dose 0.025 kg/ha): 8 (8 - Approaching complete kill); DIGSA rating ([9]; dose 0.1 kg/ha): 9 (9 - Complete kill); DIGSA rating ([9]; dose 0.4 kg/ha): 9 (9 - Complete kill); SOLNI rating ([7]; dose 0.4 kg/ha): 8 (8 - Approaching complete kill); AMBEL rating ([8]; dose 0.013 kg/ha): 7 (7 - Good herbicidal effect); AMBEL rating ([8]; dose 0.025 kg/ha): 9 (9 - Complete kill); AMBEL rating ([8]; dose 0.1 kg/ha): 9 (9 - Complete kill); AMBEL rating ([8]; dose 0.4 kg/ha): 9 (9 - Complete kill)

Source: patent US6852673B2, “Herbicidal pyridine compounds” (BASF Aktiengesellschaft, priority 1998, dated 2005)
